Measurements: ChEMBL document CHEMBL5500391, “Systematic Structural Modification of Squaraine Dye for Near-Infrared Window One and Two Multiplexed In Vivo Imaging and Photothermal Therapy” (J Med Chem, 2024)
Activity calls are given as the source filed them.

Key:
[1] = Drug uptake in mouse Lymph node at 1000 long pass by fluorescence imaging based analysis; format: ADME, tissue-based; conditions: in vivo
[2] = Toxicity in BALB/c mouse assessed as effect on kidney at 6.84 ug, IG measured after 14 days by H and E staining based analysis; format: tissue-based; conditions: in vivo, po, 336 h, dose 6.84 µg, time 14 day
4T1 [3] = test: Antitumor activity against mouse 4T1 cells xenografted in BALB/c mouse model assessed as increase in tumor temperature at 6.84 ug, IG pretreated with compound for 2 hrs followed by laser irradiation at 808nm 1.0 W/cm2 for 5 mins (reference value: 34 degreeC); format: functional; conditions: dose 6.84 µg, time 125 min, 2.083 h
[4] = Drug metabolism in Balb/c mouse liver administered as iv dose by NIR-II fluorescence imaging analysis; format: ADME, organism-based; conditions: in vivo
[5] = Toxicity in BALB/c mouse assessed as UREA level in serum measured after 7 to 14 days by biochemical analysis; conditions: time 7-14 day
[6] = Toxicity in BALB/c mouse assessed as AST level in serum measured after 7 to 14 days by biochemical analysis; conditions: time 7-14 day
[7] = Toxicity in BALB/c mouse assessed as effect on liver at 6.84 ug, IG measured after 14 days by H and E staining based analysis; format: tissue-based; conditions: in vivo, po, 336 h, dose 6.84 µg, time 14 day
4T1 [8] = test: Cytotoxicity in mouse 4T1 cells at upto 100 uM incubated for 24 hrs by CCK-8 method; format: functional, cell-based
4T1 [9] = test: Induction of intracellular ROS generation in mouse 4T1 cells preincubated with compound followed by laser irradiation at 808nm 1.0 W/cm2 by DCFDA staining based analysis; format: functional, cell-based
[10] = Drug excretion in Balb/c mouse liver administered as iv dose measured after 12 hrs by NIR-II fluorescence imaging analysis; format: ADME, organism-based; conditions: in vivo
[11] = Toxicity in BALB/c mouse assessed as effect on tumor at 6.84 ug, IG measured after 14 days by H and E staining based analysis; conditions: in vivo, po, 336 h, dose 6.84 µg, time 14 day
[12] = Toxicity in BALB/c mouse assessed as effect on heart measured after 24 hrs by real-time NIR-II fluorescence imaging analysis; format: tissue-based; conditions: in vivo
[13] = Toxicity in BALB/c mouse assessed as effect on kidney at 6.84 ug, IG pretreated with compound for 2 hrs followed by laser irradiation at 808nm 1.0 W/cm2 for 5 mins and measured after 14 days by H and E staining based analysis; format: tissue-based; conditions: in vivo, po, 336 h, dose 6.84 µg, time 14 day
4T1 [14] = test: Antitumor activity against mouse 4T1 cells xenografted in BALB/c mouse model assessed as suppression of tumor at 6.84 ug, IG pretreated with compound for 2 hrs followed by laser irradiation at 808nm 1.0 W/cm2 for 5 mins and measured every two days for 14 days by vernier caliper analysis; format: functional; conditions: dose 6.84 µg, time 14.0 day
[15] = Toxicity in BALB/c mouse assessed as effect on tumor at 6.84 ug, IG pretreated with compound for 2 hrs followed by laser irradiation at 808nm 1.0 W/cm2 for 5 mins and measured after 14 days by H and E staining based analysis; conditions: in vivo, po, 336 h, dose 6.84 µg, time 14 day
[16] = Toxicity in BALB/c mouse assessed as effect on liver at 6.84 ug, IG pretreated with compound for 2 hrs followed by laser irradiation at 808nm 1.0 W/cm2 for 5 mins and measured after 14 days by H and E staining based analysis; format: tissue-based; conditions: in vivo, po, 336 h, dose 6.84 µg, time 14 day
[17] = Toxicity in BALB/c mouse assessed as effect on spleen measured after 24 hrs by real-time NIR-II fluorescence imaging analysis; format: tissue-based; conditions: in vivo
[18] = Toxicity in BALB/c mouse assessed as effect on heart at 6.84 ug, IG pretreated with compound for 2 hrs followed by laser irradiation at 808nm 1.0 W/cm2 for 5 mins and measured after 14 days by H and E staining based analysis; format: tissue-based; conditions: in vivo, po, 336 h, dose 6.84 µg, time 14 day
[19] = Toxicity in BALB/c mouse assessed as effect on lung measured after 24 hrs by real-time NIR-II fluorescence imaging analysis; format: tissue-based; conditions: in vivo
4T1 [20] = test: Antitumor activity against mouse 4T1 cells xenografted in BALB/c mouse model assessed as induction of apoptosis at 6.84 ug, IG measured every two days for 14 days by TUNEL assay; format: functional; conditions: dose 6.84 µg, time 14.0 day
[21] = Toxicity in BALB/c mouse assessed as ALB level in serum measured after 7 to 14 days by biochemical analysis; conditions: time 7-14 day
4T1 [22] = test: Cytotoxicity in mouse 4T1 cells assessed as decrease in cell survival at 75 uM incubated for 24 hrs under laser irradiation by CCK-8 method; format: functional, cell-based
[23] = Toxicity in BALB/c mouse assessed as effect on body weight at 6.84 ug, IG pretreated with compound for 2 hrs followed by laser irradiation at 808nm 1.0 W/cm2 for 5 mins and measured every two days for 14 days; conditions: in vivo, po, 336 h, dose 6.84 µg, time 14 day
[24] = Toxicity in BALB/c mouse assessed as effect on spleen at 6.84 ug, IG pretreated with compound for 2 hrs followed by laser irradiation at 808nm 1.0 W/cm2 for 5 mins and measured after 14 days by H and E staining based analysis; format: tissue-based; conditions: in vivo, po, 336 h, dose 6.84 µg, time 14 day
4T1 [25] = test: Antitumor activity against mouse 4T1 cells xenografted in BALB/c mouse model assessed as induction of apoptosis at 6.84 ug, IG pretreated with compound for 2 hrs followed by laser irradiation at 808nm 1.0 W/cm2 for 5 mins and measured every two days for 14 days by TUNEL assay; format: functional; conditions: dose 6.84 µg, time 14.0 day
[26] = Toxicity in BALB/c mouse assessed as creatinine level in serum measured after 7 to 14 days by biochemical analysis; conditions: time 7-14 day
4T1 [27] = test: Cytotoxicity in mouse 4T1 cells assessed as increase in red fluorescence at 100 uM incubated for 12 hrs by Calcein-AM and PI staining based fluorescence microscopy analysis; format: functional, cell-based
[28] = Toxicity in BALB/c mouse assessed as effect on heart at 6.84 ug, IG measured after 14 days by H and E staining based analysis; format: tissue-based; conditions: in vivo, po, 336 h, dose 6.84 µg, time 14 day
[29] = Toxicity in BALB/c mouse assessed as effect on lung at 6.84 ug, IG pretreated with compound for 2 hrs followed by laser irradiation at 808nm 1.0 W/cm2 for 5 mins and measured after 14 days by H and E staining based analysis; format: tissue-based; conditions: in vivo, po, 336 h, dose 6.84 µg, time 14 day
[30] = Toxicity in BALB/c mouse assessed as ALT level in serum measured after 7 to 14 days by biochemical analysis; conditions: time 7-14 day
[31] = Toxicity in BALB/c mouse assessed as effect on lung at 6.84 ug, IG measured after 14 days by H and E staining based analysis; format: tissue-based; conditions: in vivo, po, 336 h, dose 6.84 µg, time 14 day
[32] = Toxicity in BALB/c mouse assessed as effect on body weight at 6.84 ug, IG measured every two days for 14 days; conditions: in vivo, po, 336 h, dose 6.84 µg, time 14 day
[33] = Toxicity in BALB/c mouse assessed as effect on spleen at 6.84 ug, IG measured after 14 days by H and E staining based analysis; format: tissue-based; conditions: in vivo, po, 336 h, dose 6.84 µg, time 14 day
4T1 [34] = test: Cytotoxicity in mouse 4T1 cells assessed as increase in red fluorescence at 100 uM incubated for 12 hrs followed by 808nm laser irradiation for 5 mins and measured after 12 hrs by Calcein-AM and PI staining based fluorescence microscopy analysis; format: functional, cell-based; conditions: time 1445.0 min
NIH3T3 = test: Cytotoxicity in mouse 3T3 cells at upto 100 uM incubated for 24 hrs by CCK-8 method; format: toxicity, cell-based; conditions: nih3t3, 24 h
[35] = Toxicity in BALB/c mouse assessed as effect on liver measured after 24 hrs by real-time NIR-II fluorescence imaging analysis; format: tissue-based; conditions: in vivo
[36] = Drug uptake in mouse 4T1 cells assessed as increase in fluorescence measured upto 12 hrs by NIR-II fluorescence microscopic analysis; format: ADME, cell-based; conditions: 4t1, 12 h
[37] = Toxicity in BALB/c mouse assessed as effect on kidney measured after 24 hrs by real-time NIR-II fluorescence imaging analysis; format: tissue-based; conditions: in vivo
[38] = Drug uptake in mouse Lymph node at 769/48nm long pass by fluorescence imaging based analysis; format: ADME, tissue-based; conditions: in vivo
[39] = Drug uptake in mouse Lymph node at 655/24nm band pass by fluorescence imaging based analysis; format: ADME, tissue-based; conditions: in vivo

CCn1/c(=C/C2=C([O-])C(=C/C3=[N+](CC)c4cccc5cccc3c45)/C2=O)c2cccc3cccc1c32
Active: Drug uptake [1]

O=C1C(/C=c2\c3cccc4cccc(c43)n2CCCCS(=O)(=O)O)=C([O-])C/1=C/C1=[N+](CCCCS(=O)(=O)O)c2cccc3cccc1c23
Active: Drug excretion [10] | Drug uptake [36]
active: Activity (4T1 [14]) | Activity (4T1 [20]) | Activity (4T1 [22]) | Activity (4T1 [25]) | Activity (4T1 [34])
inactive: Activity (4T1 [8]) | Activity (4T1 [9]) | Activity (4T1 [27])
54 °C: T (4T1 [3])
Metabolite_Detected: Drug metabolism [4]
Non-Toxic: Activity [2] | Activity [5] | Activity [6] | Activity [7] | Activity [11] | Activity [12] | Activity [13] | Activity [15] | Activity [16] | Activity [17] | Activity [18] | Activity [19] | Activity [21] | Activity [23] | Activity [24] | Activity [26] | Activity [28] | Activity [29] | Activity [30] | Activity [31] | Activity [32] | Activity [33] | Activity (NIH3T3) | Activity [35] | Activity [37]

CCN1/C(=C/C2=C([O-])C(=C/C3=[N+](CC)c4ccc5ccccc5c4C3(C)C)/C2=O)C(C)(C)c2c1ccc1ccccc21
Active: Drug uptake [38]

CCN1/C(=C/C2=C([O-])C(=C/C3=[N+](CC)c4ccccc4C3(C)C)/C2=O)C(C)(C)c2ccccc21
Active: Drug uptake [39]
